Results as given in the NIST ThermoML archive (doi:10.1021/je0301038).

Assay: xn = mol fraction of the nth substance listed
Settings: Liquid, Pycnometric method, x1 = 0.4998

FC(Cl)(Cl)Cl [trichlorofluoromethane] + FC(F)(Cl)Cl
Settings	mass density [kg/m3]
229.99 K, 36407 kPa	1642.58
230 K, 1073 kPa	1584.87
230 K, 2061 kPa	1587.07
230 K, 3560 kPa	1589.87
230.01 K, 1362 kPa	1585.49
230.01 K, 1769 kPa	1586.39
230.01 K, 2415 kPa	1587.69
230.01 K, 2764 kPa	1588.35
230.01 K, 3080 kPa	1589
230.01 K, 10736 kPa	1602.83
230.01 K, 22197 kPa	1621.64
230.01 K, 50366 kPa	1660.98
230.01 K, 63788 kPa	1677.26
270 K, 755 kPa	1479.99
270 K, 1039 kPa	1480.78
270 K, 1716 kPa	1482.68
270 K, 2040 kPa	1483.59
270 K, 2400 kPa	1484.58
270 K, 2768 kPa	1485.54
270 K, 3627 kPa	1487.88
270 K, 15483 kPa	1517.06
270 K, 25381 kPa	1538
270 K, 35970 kPa	1557.73
270 K, 45944 kPa	1574.79
270 K, 56182 kPa	1590.7
270 K, 63322 kPa	1601.09
270.01 K, 1412 kPa	1481.79
270.01 K, 3077 kPa	1486.41
270.01 K, 8526 kPa	1500.56
298.14 K, 686 kPa	1402.27
298.14 K, 1019 kPa	1403.48
298.14 K, 2067 kPa	1407.39
298.14 K, 2429 kPa	1408.71
298.14 K, 2749 kPa	1409.89
298.14 K, 6905 kPa	1424.28
298.14 K, 14368 kPa	1447.12
298.14 K, 20993 kPa	1465.01
298.14 K, 42543 kPa	1512.9
298.14 K, 50266 kPa	1527.35
298.14 K, 57226 kPa	1539.49
298.14 K, 63755 kPa	1550.31
298.14 K, 69807 kPa	1559.74
298.15 K, 1398 kPa	1404.87
298.15 K, 1714 kPa	1406.06
298.15 K, 3086 kPa	1411.1
298.15 K, 3454 kPa	1412.44
298.15 K, 28151 kPa	1482.31
298.15 K, 36116 kPa	1499.98
319.99 K, 1077 kPa	1338.31
319.99 K, 1422 kPa	1340.05
319.99 K, 1769 kPa	1341.72
319.99 K, 2102 kPa	1343.35
319.99 K, 2468 kPa	1345.14
319.99 K, 2807 kPa	1346.81
319.99 K, 3154 kPa	1348.46
319.99 K, 3382 kPa	1349.54
319.99 K, 7540 kPa	1367.61
319.99 K, 14192 kPa	1392.66
319.99 K, 20555 kPa	1413.23
319.99 K, 27780 kPa	1434.19
319.99 K, 36829 kPa	1456.94
319.99 K, 43292 kPa	1471.79
319.99 K, 49802 kPa	1485.45
319.99 K, 56704 kPa	1498.94
319.99 K, 62748 kPa	1510.07
319.99 K, 69080 kPa	1521.1
349.98 K, 1415 kPa	1240.4
349.98 K, 2137 kPa	1246.23
349.98 K, 2476 kPa	1248.87
349.98 K, 2793 kPa	1251.27
349.98 K, 3057 kPa	1253.22
349.98 K, 3564 kPa	1256.93
349.98 K, 7128 kPa	1280.11
349.98 K, 14242 kPa	1317.8
349.98 K, 21180 kPa	1347.2
349.98 K, 27731 kPa	1370.9
349.98 K, 35848 kPa	1396.4
349.98 K, 42725 kPa	1415.5
349.98 K, 49699 kPa	1433.1
349.98 K, 63152 kPa	1463.4
349.98 K, 67876 kPa	1472.9
349.99 K, 1706 kPa	1242.74
349.99 K, 56839 kPa	1449.7
374.97 K, 2088 kPa	1141.8
374.97 K, 2486 kPa	1147.25
374.97 K, 3125 kPa	1156.09
374.97 K, 3513 kPa	1160.16
374.97 K, 7191 kPa	1197.39
374.97 K, 13814 kPa	1245.37
374.97 K, 21029 kPa	1284.3
374.97 K, 35276 kPa	1341.17
374.98 K, 2825 kPa	1151.69
374.98 K, 27477 kPa	1312.44
374.98 K, 42480 kPa	1364.11
374.98 K, 49122 kPa	1383.05
374.98 K, 55869 kPa	1400.52
374.98 K, 61365 kPa	1413.75
374.98 K, 69602 kPa	1432.06
399.96 K, 3164 kPa	1019.46
399.96 K, 4220 kPa	1047.59
399.96 K, 21341 kPa	1223.13
399.97 K, 3545 kPa	1030.57
399.97 K, 4902 kPa	1062.22
399.97 K, 5593 kPa	1075.12
399.97 K, 6171 kPa	1085.57
399.97 K, 7297 kPa	1101.78
399.97 K, 14445 kPa	1176.05
399.97 K, 27495 kPa	1255.89
399.97 K, 42176 kPa	1315.43
399.97 K, 49196 kPa	1338.37
399.97 K, 56478 kPa	1359.31
399.98 K, 35409 kPa	1290.45
399.98 K, 62903 kPa	1376.29
399.98 K, 68677 kPa	1390.42
424.96 K, 4905 kPa	873.33
424.96 K, 5555 kPa	914.74
424.96 K, 6222 kPa	944.04
424.96 K, 7091 kPa	972.83
424.96 K, 13955 kPa	1091.53
424.96 K, 27401 kPa	1198.64
424.97 K, 21076 kPa	1156.9
424.97 K, 35181 kPa	1238.98
424.97 K, 41997 kPa	1268.18
424.97 K, 49019 kPa	1294.18
424.97 K, 56094 kPa	1317.32
424.97 K, 62391 kPa	1335.91
424.97 K, 68657 kPa	1352.82
